Reference: patent EP0453119A1, “Modified beta adrenergic receptor” (MERCK & CO. INC., priority 1990, dated 1991)

molecular target: T1, [Ser¹¹³]ßAR (Mesocricetus auratus, UniProt P04274, D113S); assay: not given; set-up: species or system hamster; details: COS-7 cell membranes; equilibrium binding
T1 construct: pSVHAC contains the full length hamster ß₂AR cDNA cloned into the EcoRI site of pSVL; expressed in transfected cells; host or cells: COS-7 cells (membranes)
Description: Membrane Preparation. COS-7 cell monolayers were washed 3 times in PBS, scraped from the flask with a rubber policeman, and centrifuged at 2000 x g for 5 min. The cell pellet was resuspended in 75 mM Tris, pH 7.4, 12.5 mM MgCl₂, […] EDTA (TME buffer) at a concentration of 10⁸ cells/ml, then diluted 1:5 with water and lysed by freezing in liquid N₂ and thawing with vigorous vortexing. Nuclei were removed by centrifugation over a cushion of 60% sucrose at 2500 x g for 15 min. The upper layer was collected, membranes pelleted by centrifugation at 40,000 x g for 15 min,and resuspended in TME at a protein concentration of 1-2 mg/ml.
Receptor Assays. ¹²⁵I-CYP binding to membranes was measured in a final volume of 250 ul of TME buffer, containing […] of membrane protein and 225 pM ¹²⁵I-CYP for 90 min at 23°C, as previously described Dixon et al. (1987), supra. Membranes were collected by filtration on GF/C glass fiber filters and bound ¹²⁵I-CYP was detected with a gamma counter. Nonspecific binding, measured in the presence of […] alprenolol, was subtracted from the total binding.

T1 sequence (P04274 whole entry D113S): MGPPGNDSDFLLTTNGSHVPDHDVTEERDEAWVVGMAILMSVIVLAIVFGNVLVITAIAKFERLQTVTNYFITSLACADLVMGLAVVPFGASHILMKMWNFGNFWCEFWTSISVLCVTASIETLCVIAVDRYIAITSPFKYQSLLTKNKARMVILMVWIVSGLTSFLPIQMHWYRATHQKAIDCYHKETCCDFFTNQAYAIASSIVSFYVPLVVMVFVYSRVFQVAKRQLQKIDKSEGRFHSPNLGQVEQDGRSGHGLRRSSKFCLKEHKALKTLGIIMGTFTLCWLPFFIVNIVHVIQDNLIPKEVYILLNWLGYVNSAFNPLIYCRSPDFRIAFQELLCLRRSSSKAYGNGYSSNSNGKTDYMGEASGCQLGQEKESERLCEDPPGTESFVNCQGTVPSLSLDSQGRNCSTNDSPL

Structure (SMILES) | ¹²⁵I-CYP binding
CC(C)(C)NCC(O)COc1cccc2[nH]c(C#N)c([125I])c12 (centres unmarked) [¹²⁵I-CYP, ¹²⁵I-cyanopindolol] | did not bind detectable levels

molecular target: T2, [Ser^113]βAR (Mesocricetus auratus, UniProt P04274, D113S); assay: Adenylyl cyclase stimulation in membranes of mouse L cells expressing the mutant receptor; assay type: biochemical, hamster; details: result in words, acids compared with the corresponding esters
T2 construct: pSVHAC contains the full length hamster ß₂AR cDNA cloned into the EcoRI site of pSVL; expressed in transfected cells; host or cells: mouse L cells (clonal lines, membranes)
T2 sequence (P04274 whole entry D113S): as above
Description: Mutagenesis of the ßAR gene. […] Other standard cloning techniques were performed as described by the former Manual and would be easily reproduced by anyone trained in molecular biology. An oligonucleotide 19 nucleotides in length complementary to the phage DNA surrounding the codon for Asp¹¹³ were synthesized using an Applied Biosystems Model 3A DNA synthesizer. The oligonucleotide contained mismatched positions in order to convert the codon for Asp¹¹³ (GAT) to Ser ([…]). The oligonucleotide was annealed to the phage DNA for priming and extended using Klenow DNA polymerase and T4 DNA ligase. […] The ßAR gene in this vector utilizes the SV40 early promoter, the modified splice signal, and the ßAR polyadenylation site for expression. The ligated mixture was transformed into E. coli strain DH5 (Bethesda Research Laboratories) and ampicillin resistant colonies were screened by filter hybridization using the oligonucleotide corresponding to the mutation as the hybridization probe. Plasmids were isolated from several hybridization positive colonies and mapped to insure the proper DNA insert was contained in the clone. The mutations were resolved by retransformation of the plasmid DNA into E. coli. Mutant plasmid containing colonies were again isolated by filter hybridization as above. Plasmid DNA was isolated from overnight cultures of cells by alkaline lysis and twice banding in CsCl-ethidium bromide equilibrium density gradients. […] The purity of the plasmid preparation was tested by retransformation of the DNA into E. coli followed by colony hybridization. […] Plasmid DNA was isolated as above and confirmed by restriction mapping.
(§1) Expression in mammalian cells. For the establishment of clonal cell lines expressing mutant receptors, the plasmid DNAs were transfected into mouse L cells by the CaPO₄ procedure. […] The precipitate was added to the media covering subconfluent monolayers of mouse L cells in 100 mm petri dishes and incubated at 37°C for 4 hrs. The media was removed and the cells were washed once with Dulbecco's modified minimal essential medium (DMEM). […] DMEM containing 10% fetal bovine serum was then added to the monolayers and the cells were incubated at 37°C for 12-18 hrs. The medium was changed to DMEM containing 10% fetal bovine serum and […] genticin to select for cells containing the expression vector. […] Individual colonies were isolated and expanded into cell lines.
(§2) Membranes were prepared from L cell monolayers by hypotonic lysis in 10 mM Tris, pH 7.5 for 10 min at 4°C.
(§3) The reaction was allowed to proceed for 30 min at 30°C before it was quenched at 4°C with an excess of unlabeled ATP. The ³²P-cAMP produced was determined by Dowex and alumina chromatography, as described by Salomon et al., supra.
Data Analysis. Activation constant (Kact) values for adenylyl cyclase stimulation were obtained by computer assisted nonlinear regression analysis of curves generated in the presence of increasing concentrations of compounds. The Michaelis-Menton equation was used: V=Vmax[A]/Kact+[A], where V is the level of cyclase stimulation (in pmol ³²P-cAMP/mg protein/min) measured at a given agonist concentration [A], and Vmax is the calculated maximal stimulation at infinite agonist concentration.

Structure (SMILES) | activation of [Ser¹¹³]ßAR
CCOC(=O)C(O)c1ccc(O)c(O)c1 (centres unmarked) [Compound 12] | weakly
O=C(O)/C=C/c1ccc(O)c(O)c1 [Compound 8] | less effective
COC(=O)/C=C/c1ccc(O)c(O)c1 [Compound 7] | activated
O=C(O)CCc1ccc(O)c(O)c1 [Compound 6] | less effective
O=C(O)C(=O)Cc1ccc(O)c(O)c1 [Compound 10] | less effective

Other lines, results leading:

activation of [Ser¹¹³]ßAR | Structure (SMILES)
activated | CCOC(=O)Cc1ccc(O)c(O)c1 [Compound 11]
activated | CCOC(=O)C(=O)Cc1ccc(O)c(O)c1 [Compound 9]
activated | CCOC(=O)CC(O)c1ccc(O)c(O)c1 (centres unmarked) [Compound 13]
activated | CCOC(=O)CCc1ccc(O)c(O)c1 [Compound 5]

molecular target: T3, Wild-type βAR (Mesocricetus auratus, UniProt P04274); assay: Adenylyl cyclase stimulation in membranes of mouse L cells expressing the wild-type receptor; assay type: biochemical, hamster; details: not given
T3 construct: pSVHAC contains the full length hamster ß₂AR cDNA cloned into the EcoRI site of pSVL; expressed in transfected cells; host or cells: mouse L cells (clonal lines, membranes)
T3 sequence (P04274 whole entry): as the sequence (P04274 whole entry D113S) above, with S113D counted along it
Description: as §1, §2, §3
Data Analysis. […] The Michaelis-Menton equation was used: V=Vmax[A]/Kact+[A], where V is the level of cyclase stimulation (in pmol ³²P-cAMP/mg protein/min) measured at a given agonist concentration [A], and Vmax is the calculated maximal stimulation at infinite agonist concentration.

Structure (SMILES) | EC50 [nM]
CNC[C@H](O)c1ccc(O)c(O)c1 [Compound 2, epinephrine] | 300
